Measured values reported in PubChem BioAssay (NCI).
Where “and” joins values, the source holds several entries; their conditions need not be identical. Equal entries are not always repeated.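 Growth conditions: 96-well plates. Treatment: test compound, 48 hours, 5 concentrations. Analysis: linear interpolation between bracketing concentrations; unreached endpoints set to highest concentration. GI50 = concentration required for 50% inhibition of growth. Definition used: TGI = concentration required for complete inhibition of growth.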

Tests used:
Test in all cases: NCI tumour cell line growth inhibition, 48 h
NCI/ADR-RES ovarian = tested on: NCI/ADR-RES ovarian
MDA-MB-435 = tested on: MDA-MB-435
MDA-N = tested on: MDA-N
RXF-631 renal = tested on: RXF-631 renal
HOP-18 NSCLC = tested on: HOP-18 NSCLC
DLD-1 colon = tested on: DLD-1 colon
LXFL 529 NSCLC = tested on: LXFL 529 NSCLC
KM20L2 colon = tested on: KM20L2 colon
SNB-78 CNS = tested on: SNB-78 CNS

With `Cc1cc(Cl)cc(Cc2cc(Cl)cc(C)c2O)c1O` the GI50 (NCI/ADR-RES ovarian) was 2.07 µM, the TGI (NCI/ADR-RES ovarian) was 5.95 µM and the GI50 (MDA-MB-435) was 2.05 µM. It also gave a TGI (MDA-MB-435) of 6.39 µM.
In the case of `Cc1ccc(OCC2OC(n3cnc4c(Br)nc(Br)nc43)CC2Oc2ccc(C)cc2)cc1` (stereo not given), the GI50 (NCI/ADR-RES ovarian) is reported as 20.4 µM, the TGI (NCI/ADR-RES ovarian) is reported as 53.5 µM and 29.5 µM and the GI50 (MDA-N) is reported as 6.2 µM. The TGI (MDA-N) was 17.4 µM and 9.89 µM, the GI50 (MDA-MB-435) was 6.85 µM and the TGI (MDA-MB-435) was 19.4 µM and 19.5 µM.
With `COC(=O)[C@]12CC[C@@H](C)[C@H](C)[C@@H]1C1=CC[C@@H]3[C@@]4(C)C(C=O)=C[C@@](C)(COC(=O)/C=C/c5ccccc5)[C@@H]4[C@H](O)C[C@@]3(C)[C@]1(C)CC2` the GI50 (NCI/ADR-RES ovarian) was 3.64 µM, the TGI (NCI/ADR-RES ovarian) was 19.1 µM and the GI50 (MDA-MB-435) was 3.04 µM. For the same molecule, the TGI (MDA-MB-435) was 10.3 µM.
`C#Cc1cccc(NC(=O)c2ccc(NC(=O)CCl)cc2)c1` was tested, and the GI50 (NCI/ADR-RES ovarian) was 19.6 µM, the TGI (NCI/ADR-RES ovarian) was 67.1 µM and the GI50 (MDA-MB-435) was 43.8 µM. It also gave a TGI (MDA-MB-435) greater than 82.5 µM.
For `CCOC(=O)C(C(O)c1ccc([N+](=O)[O-])cc1)P(=O)(OCC)OCC` (stereo not given), the TGI (RXF-631 renal) was greater than 100 µM, the TGI (HOP-18 NSCLC) was greater than 100 µM and the TGI (DLD-1 colon) was greater than 100 µM. The TGI (LXFL 529 NSCLC) was greater than 100 µM and the TGI (KM20L2 colon) was greater than 100 µM.
Work on `COc1ccc(/C=C2\c3cc(OC)c(OC)c(OC)c3CC[C@@H]2O)cc1F` yielded a GI50 (NCI/ADR-RES ovarian) of 0.196 µM, a TGI (NCI/ADR-RES ovarian) of 1.31 µM and a GI50 (MDA-MB-435) of 0.0399 µM. It also gave a TGI (MDA-MB-435) of 0.235 µM.
Molecule `CCc1cccc(C)c1NC(=S)NC(=O)c1ccccc1C(=O)NC(=S)Nc1c(C)cccc1CC` has a TGI (HOP-18 NSCLC) greater than 100 µM, a TGI (DLD-1 colon) greater than 100 µM and a TGI (LXFL 529 NSCLC) greater than 100 µM. It also gave a TGI (KM20L2 colon) greater than 100 µM and a TGI (SNB-78 CNS) greater than 100 µM.
Work on `[O-]c1c2c(nn1-c1ccc(Cl)cc1)c1ccccc1c[n+]2Cc1ccccc1` yielded a TGI (HOP-18 NSCLC) greater than 100 µM, a TGI (DLD-1 colon) greater than 100 µM and a TGI (LXFL 529 NSCLC) greater than 100 µM. The TGI (KM20L2 colon) was greater than 100 µM and the TGI (SNB-78 CNS) was greater than 100 µM.
For `CCOCc1cc(=O)c2c(OC)cc3c(c2o1)CCC(C)(C)O3`, the TGI (HOP-18 NSCLC) was greater than 100 µM, the TGI (DLD-1 colon) was greater than 100 µM and the TGI (LXFL 529 NSCLC) was greater than 100 µM. It also gave a TGI (KM20L2 colon) greater than 100 µM and a TGI (SNB-78 CNS) greater than 100 µM.
Work on `COC1=CC(=O)c2nc(Cl)ccc2C1=O` yielded a GI50 (NCI/ADR-RES ovarian) of 1.98 µM, a TGI (NCI/ADR-RES ovarian) of 4.24 µM and a GI50 (MDA-MB-435) of 1.79 µM. For the same molecule, the TGI (MDA-MB-435) was 3.36 µM.
Molecule `CCN(Cc1ccc(F)cc1)c1ccc(CO)c(OC)c1` has a GI50 (NCI/ADR-RES ovarian) of 17.6 µM, a TGI (NCI/ADR-RES ovarian) of 55.5 µM and a GI50 (MDA-MB-435) of 25.7 µM. For the same molecule, the TGI (MDA-MB-435) was greater than 100 µM.
With `COc1cnc2c(c1)C(=O)c1c-2n(CCCN2CCNCC2)c(=O)c2cc([N+](=O)[O-])ccc12` the GI50 (NCI/ADR-RES ovarian) was 1.11 µM, the TGI (NCI/ADR-RES ovarian) was 2.8 µM and the GI50 (MDA-MB-435) was 1.25 µM. The TGI (MDA-MB-435) was 2.68 µM.
In the case of `C=C1C(=O)O[C@H]2[C@H]1CC/C(COC(=O)NCCCCCCCCNC(=O)OC/C1=C/CC[C@@]3(C)O[C@H]3[C@H]3OC(=O)C(=C)[C@@H]3CC1)=C\CC[C@@]1(C)O[C@@H]21`, the GI50 (NCI/ADR-RES ovarian) is reported as 3.91 µM, the TGI (NCI/ADR-RES ovarian) is reported as 18.7 µM and the GI50 (MDA-MB-435) is reported as 0.241 µM. For the same molecule, the TGI (MDA-MB-435) was 0.686 µM.
For `CCCCN(CCCC)CCCn1cnc2ncccc2c1=O`, the TGI (DLD-1 colon) was greater than 100 µM, the TGI (LXFL 529 NSCLC) was greater than 100 µM and the TGI (KM20L2 colon) was greater than 100 µM. For the same molecule, the TGI (SNB-78 CNS) was greater than 100 µM.
`CCC[CH2][Pb]([Cl])([CH2]CCC)[CH2]CCC` showed a GI50 (MDA-N) of 0.0196 µM, a TGI (MDA-N) of 0.0461 µM and a GI50 (MDA-MB-435) of 0.0178 µM. For the same molecule, the TGI (MDA-MB-435) was 0.0366 µM.
`O=C(O)CCC(C(=O)O)N1C(=O)C2C3CCC(C3)C2C1=O` (stereo not given) showed a TGI (NCI/ADR-RES ovarian) greater than 100 µM, a TGI (MDA-N) greater than 100 µM and a TGI (MDA-MB-435) greater than 100 µM.
Molecule `COc1cc2c(cc1C)NC(=O)/C2=C\c1c[nH]c2ccccc12` has a GI50 (NCI/ADR-RES ovarian) of 13 µM, a TGI (NCI/ADR-RES ovarian) of 47.6 µM and a GI50 (MDA-MB-435) of 14.3 µM. It also gave a TGI (MDA-MB-435) of 43.8 µM.
With `COc1ccc(N(C)c2nc(Cl)nc3cnn(C)c23)cc1` the GI50 (NCI/ADR-RES ovarian) was less than 0.01 µM and the TGI (NCI/ADR-RES ovarian) was greater than 100 µM.
`Cc1ccc(S(=O)(=O)N2CCc3ccc(O)c4c3C2Cc2ccc3c(c2-4)OCO3)cc1` (stereo not given) showed a GI50 (NCI/ADR-RES ovarian) of 0.348 µM, a TGI (NCI/ADR-RES ovarian) of 2.08 µM and a GI50 (MDA-MB-435) of 0.216 µM. It also gave a TGI (MDA-MB-435) of 0.539 µM.
Molecule `[CH3][Sn]([CH3])([CH3])[O][N+](=O)[O-]` has a GI50 (NCI/ADR-RES ovarian) of 2.3 µM, a TGI (NCI/ADR-RES ovarian) of 5.7 µM and a GI50 (MDA-N) of 5.14 µM. It also gave a TGI (MDA-N) greater than 10 µM, a GI50 (MDA-MB-435) of 5.93 µM and a TGI (MDA-MB-435) greater than 10 µM.
Molecule `CC(C)C1N2CCCCC2[C@@H]2c3[nH]c4ccccc4c3CCN12` (stereo not given in full) has a TGI (HOP-18 NSCLC) greater than 100 µM, a TGI (DLD-1 colon) greater than 100 µM and a TGI (LXFL 529 NSCLC) greater than 100 µM. For the same molecule, the TGI (KM20L2 colon) was greater than 100 µM and the TGI (SNB-78 CNS) was greater than 100 µM.
`CCCCCCCC(=O)[O][Hg][CH2]C1COC([CH2][Hg][O]C(=O)CCCCCCC)CO1` (stereo not given) showed a GI50 (NCI/ADR-RES ovarian) of 20.2 µM, a TGI (NCI/ADR-RES ovarian) of 49.6 µM and a GI50 (MDA-N) of 15.6 µM. The TGI (MDA-N) was 30 µM, the GI50 (MDA-MB-435) was 12.9 µM and the TGI (MDA-MB-435) was 25.8 µM.
`N#CC1C(=O)NC(c2ccccc2[N+](=O)[O-])c2sc3c(F)cccc3c21` (stereo not given) gave a GI50 (NCI/ADR-RES ovarian) of 8.06 µM, a TGI (NCI/ADR-RES ovarian) of 39.8 µM and a GI50 (MDA-MB-435) of 23.2 µM. For the same molecule, the TGI (MDA-MB-435) was greater than 83.9 µM.
Work on `CN1CCN(Cc2ccc(NC(=O)c3cncc(C#Cc4cnc(N)c5cnccc45)c3)cc2C(F)(F)F)CC1` yielded a GI50 (NCI/ADR-RES ovarian) of 6.02 µM, a TGI (NCI/ADR-RES ovarian) of 15.9 µM and a GI50 (MDA-MB-435) of 0.115 µM. For the same molecule, the TGI (MDA-MB-435) was 1.65 µM.
In the case of `COc1ccc(OC)c(/C=C/c2nc(SCc3ccccc3)n(-c3ccc(Cl)cc3)n2)c1`, the GI50 (NCI/ADR-RES ovarian) is reported as 2.25 µM and the TGI (NCI/ADR-RES ovarian) is reported as greater than 100 µM.
`COc1cc(/C=C2/C(=O)N(C(=O)OCc3ccccc3)C(Cc3cc(OC)c(OC)c(C)c3OC)C(=O)N2Cc2ccccc2)c(OC)c(C)c1OC` (stereo not given) gave a TGI (RXF-631 renal) greater than 100 µM, a TGI (HOP-18 NSCLC) greater than 100 µM and a TGI (DLD-1 colon) greater than 100 µM. It also gave a TGI (LXFL 529 NSCLC) greater than 100 µM and a TGI (KM20L2 colon) greater than 100 µM.
With `O=c1cc(-c2ccccc2)[nH]c2cc(Cl)ccc12` the TGI (HOP-18 NSCLC) was greater than 100 µM, the TGI (DLD-1 colon) was 23.8 µM and the TGI (LXFL 529 NSCLC) was 53.2 µM. For the same molecule, the TGI (KM20L2 colon) was 3.2 µM and the TGI (SNB-78 CNS) was greater than 100 µM.
For `Cn1c2ccccc2c2c(=O)n(CCCC(=O)OC(=NC3CCCCC3)NC3CCCCC3)c3c(-c4ccccc4)nnn3c21`, the GI50 (NCI/ADR-RES ovarian) was 94.9 µM, the TGI (NCI/ADR-RES ovarian) was greater than 100 µM and the GI50 (MDA-MB-435) was greater than 100 µM. For the same molecule, the TGI (MDA-MB-435) was greater than 100 µM.
`Cc1nccc2c3ccc(OCc4cn(-c5ccc(Cl)cc5)nn4)cc3n(CC(C)C)c12` was tested, and the GI50 (NCI/ADR-RES ovarian) was 1.73 µM, the TGI (NCI/ADR-RES ovarian) was 30.8 µM and the GI50 (MDA-MB-435) was 3.38 µM. For the same molecule, the TGI (MDA-MB-435) was greater than 33.3 µM.
With `CCCN1CCC(c2ccc(Nc3nc(Nc4cc(F)ccc4C(N)=O)c4cc[nH]c4n3)c(OC)c2)CC1` the GI50 (NCI/ADR-RES ovarian) was 3.2 µM, the TGI (NCI/ADR-RES ovarian) was 8.37 µM and the GI50 (MDA-MB-435) was 0.852 µM. The TGI (MDA-MB-435) was 5.86 µM.
Work on `CCOC(=O)c1cccnc1C(OC(C)=O)OC(C)=O` yielded a TGI (HOP-18 NSCLC) greater than 100 µM, a TGI (DLD-1 colon) greater than 100 µM and a TGI (LXFL 529 NSCLC) greater than 100 µM. It also gave a TGI (KM20L2 colon) greater than 100 µM and a TGI (SNB-78 CNS) greater than 100 µM.
With `CCCCCC[C@H](C)NC(=O)c1ccc(Nc2nc3ccccc3c3occc23)cc1` the GI50 (NCI/ADR-RES ovarian) was 2.48 µM, the TGI (NCI/ADR-RES ovarian) was 6.99 µM and the GI50 (MDA-MB-435) was 2.9 µM. For the same molecule, the TGI (MDA-MB-435) was 15.3 µM.
`CCOP1(=O)C=C(C)C(=C(Cl)Cl)C(C)=C1` (stereo not given) gave a GI50 (RXF-631 renal) of 20.4 µM, a TGI (RXF-631 renal) of 64.5 µM and a TGI (HOP-18 NSCLC) of 46.9 µM. The TGI (DLD-1 colon) was 78.5 µM, the GI50 (LXFL 529 NSCLC) was 5.53 µM and the TGI (LXFL 529 NSCLC) was 24.1 µM. The GI50 (KM20L2 colon) was 4.53 µM and the TGI (KM20L2 colon) was 6.76 µM and 65.3 µM.
